# Laboratory results from US10238658B2, “1-pyrazolyl-3-(4-((2-anilinopyrimidin-4-yl) oxy) napththalen-1-yl) ureas as p38 MAP kinase inhibitors” (Respivert Limited, priority 2011, dated 2019).
# pIC50: −log10 of the molar value.
# Columns and labels:
# TNFα = test: LPS-stimulated TNFα production in sputum macrophages from COPD; type: cell-based; details: Homo sapiens, Macrophage
# Protocol: (§1) Patients with COPD were inhaled with a nebulised solution of 3% (w/v) hypertonic saline using an ultrasonic nebuliser (Devilbiss, Carthage, Mo.) with tidal breathing for 5 min. This procedure was repeated a maximum of three times until enough sputum was obtained. The sputum samples were homogenized and mixed vigorously using a vortex mixer in 0.02% v/v dithiothreitol (DTT) solution. The samples were re-suspended in PBS (40 mL) followed by centrifugation at 1500 rpm at 4° C. for 10 min to obtain sputum cell pellets. The pellets were washed twice with PBS (40 mL). The sputum cells were then re-suspended in macrophage serum-free medium (macrophage-SFM, Life technologies, Paisley, UK; to achieve 2×10^6/well in a 24 well plate) containing 20 U/mL penicillin, 0.02 mg/mL streptomycin and 5 μg/mL amphotericin B and seeded on high bound 96-well plate, followed by incubation for 2 hr at 37° C. and at 5% CO2 to allow the macrophages to attach to the bottom of the plate. The cells on the plate were washed with fresh macrophage-SFM (200 μL/well) to remove neutrophils and other contaminated cells. The adherent cells (mainly sputum macrophages) on the plate were used for further analysis. Sputum induction and isolation were conducted in Quintiles Drug Research Unit at Guys Hospital and ethics approval and written informed consent was obtained by Quintiles.
# (§2) Where appropriate, 1 μL of a solution containing either the test compound or reference article at the stated concentrations or alternatively 1 μL of DMSO as the vehicle control was added to each well (200 μL in media) and the cells were incubated for 2 hr. […] After washing with 200 uL wash buffer per well, the beads were resuspended in sheath fluid (150 μL) and analyzed immediately. The level of each analyte in the supernatant was calculated using Xcel Fit software with a 4 or 5-parameter equation using each standard curve. The inhibitions of each cytokine production were calculated at each concentration by comparison with vehicle control. The IC50 values were determined from concentration-inhibition curves using XL-Fit (idbs, Guildford, UK)
# IL-8 [1] = test: TNFα-stimulated IL-8 production in primary bronchial epithelial cells from COPD; type: cell-based; details: Homo sapiens, Epithelial cell
# Protocol: (§3) Primary airway epithelial cells obtained from patients with COPD were purchased from Asterand (Royston, UK), and maintained in bronchial epithelial cell growth media that was prepared by mixing together LHC8 (lnvitrogen) (500 mL), with LHC9 (Invitrogen) (500 mL) and 3 μL of retinoic acid solution (5 mg/mL in neat DMSO. The media was removed by aspiration and fresh BEGM (200 μL) was added to each well. Where appropriate, 1 μL of a solution of the test compound at the state concentrations or 1 μL of DMSO as the vehicle control was added and the cells were incubated for 2 hr. The cells were stimulated with TNFα (50 μL; final concentration 50 ng/mL) and then incubated for 4 hr at 37° C. and 5% CO2. The supernatant was then collected and kept at −20° C.
# (§4) The levels of IL-6 and IL-8 were determined by ELISA using R&D Systems' Human IL-6 and IL-8 Duoset® Elisa Kits. The inhibition of IL-6 and IL-8 production was calculated at each concentration by comparison with vehicle control.
# IL-8 [2] = test: LPS-stimulated IL-8 production in sputum macrophages from COPD; type: cell-based; details: Homo sapiens, Macrophage
# Protocol: as §1, §2
# IL-6 = test: TNFα-stimulated IL-6 production in primary bronchial epithelial cells from COPD; type: cell-based; details: Homo sapiens, Epithelial cell
# Protocol: as §3, §4
# Balb/c mice = test: LPS-induced neutrophil accumulation in mice; type: in vivo, mouse
# Protocol: […] At T=0, mice were placed into an exposure chamber and exposed to LPS (7.0 mL, 0.5 mg/mL solution in PBS) for 30 min). After a further 8 hr the animals were anesthetized, their tracheas cannulated and BALF extracted by infusing and then withdrawing from their lungs 1.0 mL of PBS via the tracheal catheter. Total and differential white cell counts in the BALF samples were measured using a Neubaur haemocytometer. Cytospin smears of the BALF samples were prepared by centrifugation at 200 rpm for 5 min at RT and stained using a DiffQuik stain system (Dade Behring). Cells were counted using oil immersion microscopy. Data for neutrophil numbers in BAL are shown as mean ±S.E.M. (standard error of the mean). The percentage inhibition of neutrophil accumulation was calculated for each treatment relative to vehicle treatment,
# MIP1α = test: LPS-stimulated MIP1α production in sputum macrophages from COPD; type: cell-based; details: Homo sapiens, Macrophage
# Protocol: as §1, §2
# d-U937 cells = test: Cell viability: MTT assay; type: cell-based, human; details: 1 μg/mL
# Protocol: Differentiated U937 cells were pre-incubated with each test compound (final concentration 1 μg/mL or 10 μg/mL in 200 μL media indicated below) under two protocols: the first for 4 hr in 5% FCS RPMI1640 media and the second in 10% FCS RPMI1640 media for 24 h. The supernatant was replaced with new media (200 μL) and MTT stock solution (10 μL, 5 mg/mL) was added to each well. After incubation for 1 hr the media were removed, DMSO (200 μL) was added to each well and the plates were shaken lightly for 1 hr prior to reading the absorbance at 550 nm. The percentage loss of cell viability was calculated for each well relative to vehicle (0.5% DMSO) treatment. Consequently an apparent increase in cell viability for drug treatment relative to vehicle is tabulated as a negative percentage.
SMILES,"pIC50 (TNFα; COPD patients, LPS)","Emax at 0.1 µg/mL (TNFα; read-out: TNFα E max, sputum macrophage)","pIC50 (IL-8 [1]; COPD patients, TNFα stimulated)","Emax at 0.1 µg/mL (IL-8 [1]; read-out: IL-8 E max, bronchial epithelial cell)","pIC50 (IL-8 [2]; COPD patients, LPS)","Emax at 0.1 µg/mL (IL-8 [2]; read-out: IL-8 E max, sputum macrophage)","pIC50 (IL-6; COPD patients, TNFα stimulated)","Emax at 0.1 µg/mL (IL-6; read-out: IL-6 E max, bronchial epithelial cell)","% inhibition of neutrophil numbers in BALF (Balb/c mice; 0.05 mg/mL intra tracheal, pre-dose 2 hr)","% inhibition of neutrophil numbers in BALF (Balb/c mice; 0.2 mg/mL intra tracheal, pre-dose 2 hr)","% inhibition of neutrophil numbers in BALF (Balb/c mice; 1.0 mg/mL intra tracheal, pre-dose 2 hr)","% inhibition of neutrophil numbers in BALF (Balb/c mice; 1.0 mg/mL intra tracheal, pre-dose 8 hr)","% inhibition of neutrophil numbers in BALF (Balb/c mice; 1.0 mg/mL intra tracheal, pre-dose 12 hr)","LPS-induced neutrophil accumulation, effect in words (Balb/c mice; mice)","pIC50 (MIP1α; COPD patients, LPS)","Emax at 0.1 µg/mL (MIP1α; read-out: MIP1α E max, sputum macrophage)",MTT Assay Cell viability at time point in d-U937 Cells 4 h (d-U937 cells; 4 h),MTT Assay Cell viability at time point in d-U937 Cells 24 h (d-U937 cells; 24 h)
"Cc1ccc(-n2nc(C(C)(C)C)cc2NC(=O)Nc2ccc(Oc3ccnc(Nc4ccccc4)n3)c3ccccc23)cc1 [Example 1, 1-(3-(tert-Butyl)-1-(p-tolyl)-1H-pyrazol-5-yl)-3-(4-(2-(phenylamino)pyrimidin-4-yloxy)naphthalen-1-yl)urea]",7.77,86%,9.07,100%,7.17,64%,8.77,100%,18%,48%,77%,48%,4%,dose dependent inhibition,8.12,89%,,
"Cc1ccc(-n2nc(C(C)(C)C)cc2NC(=O)Nc2ccc(Oc3ccnc(Nc4cccc(O)c4)n3)c3ccccc23)cc1 [Example 2, 1-(3-(tert-Butyl)-1-(p-tolyl)-1H-pyrazol-5-yl)-3-(4-((2-((3-hydroxyphenyl)amino)pyrimidin-4-yl)oxy)naphthalen-1-yl)urea]",,,,,,,,,,,,,,,,,"−ve (−ve and +ve indicate the value is below and above respectively, the no significant effect threshold defined as 30% inhibition at 1 μg/mL at the time point indicated)","−ve (−ve and +ve indicate the value is below and above respectively, the no significant effect threshold defined as 30% inhibition at 1 μg/mL at the time point indicated)"
